The source of these data is patent US10017507B2, “Diaza-benzofluoranthrene compounds” (HARBIN PHARMACEUTICAL GROUP CO., LTD. GENERAL …, priority 2015, dated 2018).

The clearance is a measure of how efficiently the substance is removed, as volume per time. What is called half-life is the time in which the quantity being followed falls by half. In general, bioavailability refers to the share of a dose that reaches the circulation, judged against a reference dose that is usually intravenous.

The target in one series is T1, PDE1A (Homo sapiens, UniProt P54750).
T1 construct: purchased SignalChem
The experiment in a line: In vitro detection of phosphodiesterase (PDE): PDE1A enzyme activity by fluorescence polarization immunoassay. Conditions: human-derived enzyme, cAMP or cGMP substrate; read-out: IC50s for PDE1. The format is biochemical. Put shortly: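 Human PDE1A (enzyme solution 3 pM) was preincubated 10 min at RT with compound in 10 mM Tris-HCl pH 7.5, 5 mM MgCl2, 0.01% Brij 35, 1 mM DTT, 1% DMSO, with Ca2+-calmodulin cofactor. Reaction ran 1 h at RT on […] cAMP or cGMP, then 90 min with antibody/tracer. FP at Ex/Em 620/688 was converted to AMP/GMP via standard curve to give IC50.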
A general note: Polarisation of emitted light reports the rotation of a fluorescent probe.

Series [1] is described as follows: Comparison of pharmacokinetics in Beagle dogs. It is filed as in vivo. Conditions: for clearance / half-life / bioavailability: male, dog, plasma; for half-life: read-out: Half-life period (converted). On the procedure:
Test 2: Comparison of Pharmacokinetics in Beagle Dogs
In this study, male Beagle dogs were given the compounds of the examples and vinpocetine (as a control compound) by intravenous injection or oral administration, respectively, then the drug concentration in plasma at different time points was determined by the LC/MS/MS method, so as to investigate the pharmacokinetic characteristics of the two test drugs in Beagle dogs.
Eight healthy adult Beagle dogs with a weight of 7.0 to 10.83 kg (purchased from Beijing Marshall Biotechnology Co., Ltd.) were selected. The formulation for intravenous injection group was DMSO: PEG400: water=5:20:75. A solvent was added to the test compound which had been accurately weighed, after vortex oscillation and ultrasound, a clear solution with a final concentration of 1.0 mg/mL was obtained. The solution was filtered with a filter membrane of 0.22 μm and stored at room temperature for use. The formulation for oral administration group was PEG 400: Tween 80: H2O=40:10:50. A solvent was added to the test compound which had been accurately weighed, after vortex oscillation and ultrasound, a clear solution with a final concentration of 1.5 mg/mL was obtained. The formulations for both the intravenous injection and the oral administration were formulated on the day of administration. The intravenous dose was 1.0 mg/kg, and the oral dose was 3.0 mg/kg. The whole blood for each test compound was respectively taken at 0.083 (for intravenous injection only), 0.25, 0.5, 1, 2, 4, 6, 8 and 24 hours after administration. The whole blood was centrifuged (3000 g, 15 min, 4° C.) to obtain the plasma. The drug concentration in each plasma sample was determined by LC/MS/MS method. The data about drug concentration in plasma was processed by WinNonlin™ Version 6.3 (Pharsight, Mountain View, Calif.) software, using a non-compartmental model, and the pharmacokinetic parameters were calculated by using the linear-logarithmic trapezoidal method.

Series [2] deals with pentylenetetrazole-kindling model of epilepsy. The series can be described thus: Inhibition effect on pentylenetetrazole-kindling model of epilepsy in cynomolgus monkey. It is filed as in vivo. Conditions: 10 mg/kg; for latency prolonged than the Vehicle group / latency, relative increase versus Vehicle group / lasting time of convulsions shortened compared with the Vehicle Group / lasting time of convulsions, relative reduction versus Vehicle Group / times of clonic and tonic convulsion reduced compared with the Vehicle Group / times of clonic and tonic convulsion, relative reduction versus Vehicle Group: versus Vehicle group; for latency for the onset of epilepsy seizure: continuous administration of 8 days, pentylenetetrazole 40 mg/kg s.c.; for latency for the onset of epilepsy seizure / lasting time of clonic convulsions and tonic convulsions / times of clonic convulsion and tonic convulsion: Mean±SEM; for lasting time of clonic convulsions and tonic convulsions: pentylenetetrazole-kindled; for times of clonic convulsion and tonic convulsion: within 24 hours after pentylenetetrazol. The text has this:
Test 3: Inhibition Effect on Pentylenetetrazole-Kindling Model of Epilepsy in Cynomolgus Monkey In this test, six male cynomolgus monkeys were selected, and each monkey was intragastrically administrated by nasal feeding. Besides pentylenetetrazole which was administrated by subcutaneous injection, the compound of Example 29 and carbamazepine were consecutively administered for 8 days, respectively. The monkeys were respectively given a solvent prior to the first administration, and were injected subcutaneously with pentylenetetrazole immediately after the last administration. The administration interval between two tests was about 10 days. Pentylenetetrazine was administered once to induce epilepsy prior to the first administration of the compound of Example 29. The dosage was calculated according to the latest weight of the animal, and the date of first administration was designated as Day 1. Surgical procedure: the animals were fed adaptively for at least one week in feeding facilities, and then they were anesthetized during preoperative preparation according to the company standards. The main operation procedures were as follows: cutting the head skin, fully exposing the skull, stripping the periosteum, and cleaning the skull surface with a dry absorbent cotton; drilling 2 holes on the skull of the cynomolgus monkey with cranial drill, implanting a brain electrode, and fixing it with dental cement; then burying two myoelectric electrodes into the neck muscles of the cynomolgus monkey, and burying eye-electric electrodes into the bilateral eye muscles, fixing the implant body in the abdominal muscle layer. Postoperative care was performed according to the company standards. The raw data was collected by Ponemah of DSI system, and analyzed and revised by Neuronscore. The data was shown by mean±standard error (Mean±SEM), statistical analysis was performed by t-test and ANOVA. P<0.05 indicated a significant difference, P<0.01 indicated a very significant difference, P<0.001 indicated an extremely significant difference. The characteristics of electroencephalic response and electroencephalic energy for pentylenetetrazole-kindling epilepsy were observed and analyzed, and then a comparison was made between Example 29 and carbamazepine in terms of the latency for the onset of epilepsy seizure, and the times and lasting time of clonic convulsions and tonic convulsions in cynomolgus monkey pentylenetetrazole-kindling model, so as to compare the pharmacodynamic inhibitory effect of Example 29 and carbamazepine on cynomolgus monkey pentylenetetrazole-kindling model. After the cynomolgus monkeys were injected subcutaneously with 40 mg/kg pentylenetetole on the back and were induced epilepsy-like behaviors, the electroencephalic response, electromyogrphic response and locomotor activity were detected by DSI wireless remote sensing signal recording system. […] The behaviors were divided into paroxysmal activity, clonic convulsion and tonic convulsions according to the status of epilepsy. The changes of electroencephalic energy within 4-24 Hz were statistically analyzed when cynomolgus monkeys suffered epileptic seizure within 24 hours after injection of pentylenetetrazole.

Bounds are passed on as bounds.

For `CC[C@@]12C=C(c3nc(C)no3)n3c4c(c5ccccc53)CCN(CCC1)[C@H]42` [Example 29, 5-((4^1S,13aS)-13a-ethyl-2,3,4^1,5,6,13a-hexahydro-1H-indolo[3,2,1-de]pyrido[3,2,1-ij][1,5]naphthyridin-12-yl)-3-methyl-1,2,4-oxadiazole], the IC50 at PDE1A is 1 to 20 µM. Besides, in series [1] (intravenous injection 1 mg/kg), the “area under the concentration-time curve (0-inf)” value (from here on “area”) was determined as 4.04 µM·h, the clearance was found to be 12 mL/min/kg and the half-life is 9.42 h. In addition, in series [1] (oral administration 3 mg/kg), the bioavailability was found to be 37.5%, the Peak concentration is recorded as 1299 nM, the “Time to Peak” value was determined as 1.0 h and the “area” value was found to be 4.545 µM·h. Also, in series [1] (relative to vinpocetine), the “half-life longer than that of vinpocetine” value came to 56% and the “plasma clearance lower than that of vinpocetine” value is listed as “about 85%”. Further, in series [2] (8 days), the “latency prolonged than the Vehicle group” value turned out to be 39.24 min and the “latency, relative increase versus Vehicle group” value is given as 160%. Moreover, the “latency prolonged than the carbamazepine group” value in series [2] (8 days, versus carbamazepine group) was 18.9 min. For the same molecule, in series [2], the “latency for the onset of epilepsy seizure” value was 64.10 ± 13.21 min; the “lasting time of clonic convulsions and tonic convulsions” value was 2.61 ± 0.99 min; the “lasting time of convulsions shortened compared with the Vehicle Group” value is listed as 9.07 min; the “lasting time of convulsions, relative reduction versus Vehicle Group” value turned out to be 78%. Also, the “times of clonic convulsion and tonic convulsion” value in series [2] is given as 25.7±7.07. Moreover, the “lasting time of convulsions shortened compared with the carbamazepine group” value in series [2] (versus carbamazepine group) was “about 2.1 min”. Moreover, in series [2] (within 24 hours), the “times of clonic and tonic convulsion reduced compared with the Vehicle Group” value was “about 82 times”; the “times of clonic and tonic convulsion, relative reduction versus Vehicle Group” value is 76%. Further, in series [2] (within 24 hours, versus carbamazepine group), the “times of clonic and tonic convulsion reduced compared with the carbamazepine group” value is “about 14 times”.

Take `NC(=O)N1c2ccccc2C=Cc2ccccc21` [carbamazepine, reference compound]: in series [2] (8 days), the “latency prolonged than the Vehicle group” value is on record as 20.34 min and the “latency, relative increase versus Vehicle group” value was found to be 81%. In series [2], the “latency for the onset of epilepsy seizure” value was determined as 45.20 ± 9.11 min; the “lasting time of clonic convulsions and tonic convulsions” value came to 4.71 ± 2.35 min; the “lasting time of convulsions shortened compared with the Vehicle Group” value came to 6.97 min; the “lasting time of convulsions, relative reduction versus Vehicle Group” value was determined as 60%. Moreover, the “times of clonic convulsion and tonic convulsion” value in series [2] is given as 39.20±14.92. Also, in series [2] (within 24 hours), the “times of clonic and tonic convulsion reduced compared with the Vehicle Group” value is reported as “about 68 times”; the “times of clonic and tonic convulsion, relative reduction versus Vehicle Group” value came out at 63%.

For the molecule `CCOC(=O)C1=C[C@]2(CC)CCCN3CCc4c(n1c1ccccc41)[C@@H]32` [Vinpocetine, reference compound], in series [1] (intravenous injection 1 mg/kg), the “area” value came to 0.588 µM·h, the clearance came to 80.5 mL/min/kg and the half-life was 6.03 h. Moreover, in series [1] (oral administration 3 mg/kg), the bioavailability amounted to 12.3%, the Peak concentration turned out to be 142 nM, the “Time to Peak” value was determined as 0.5 h and the “area” value worked out at 0.216 µM·h.

Regarding `CC[C@@]12C=C(c3nc(C(C)C)c(C)o3)n3c4c(c5ccccc53)CCN(CCC1)[C@H]42` [Example 57, 2-((4^1S,13aS)-13a-ethyl-2,3,4^1,5,6,13a-hexahydro-1H-indolo[3,2,1-de]pyrido[3,2,1-ij][1,5]naphthyridin-12-yl)-4-isopropyl-5-methyloxazole], the IC50 on PDE1A was not above 1 µM.
